Publication PMC8405091, “Microwave-assisted Phospha-Michael addition reactions in the 13α-oestrone series and in vitro antiproliferative properties” (Journal of Enzyme Inhibition and Medicinal Chemistry, 2021)

Legend:
UPCI-SCC-131 cells = experiment: MTT antiproliferative assay, UPCI-SCC-131; assay type: cell-based, human; conditions: Homo sapiens, 72 h, 72 h; for inhibition at 10 µM / inhibition at 30 µM: read-out: Growth inhibition, % ± SEM; for inhibition at 10 µM: UPCI-SCC-131, 10 μM; for inhibition at 30 µM: UPCI-SCC-131, 30 μM; for IC50: read-out: calculated IC50 value
Outline: (§1)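 Cells seeded at 5,000/well (C33-A at 10,000/well), treated next day with compounds at 10 and 30 µM final for 72 h at 37 °C, 5% CO2. Viability read by MTT reduction (4 h), formazan dissolved in DMSO; two experiments, five parallels each.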

UPCI-SCC-154 cells = experiment: MTT antiproliferative assay, UPCI-SCC-154; assay type: cell-based, human; conditions: Homo sapiens, 72 h, 72 h; for inhibition at 10 µM / inhibition at 30 µM: read-out: Growth inhibition, % ± SEM; for inhibition at 10 µM: UPCI-SCC-154, 10 μM; for inhibition at 30 µM: UPCI-SCC-154, 30 μM; for IC50: read-out: calculated IC50 value
Outline: as §1

HeLa cells = experiment: MTT antiproliferative assay, HeLa; assay type: cell-based, human; conditions: Homo sapiens, 72 h; for inhibition at 10 µM: read-out: Growth inhibition, % ± SEM, 10 μM; for inhibition at 30 µM: read-out: Growth inhibition, % ± SEM, 30 μM; for IC50: read-out: calculated IC50 value
Outline: as §1

SiHa cells = experiment: MTT antiproliferative assay, SiHa; assay type: cell-based, human; conditions: Homo sapiens, 72 h; for inhibition at 10 µM: read-out: Growth inhibition, % ± SEM, 10 μM; for inhibition at 30 µM: read-out: Growth inhibition, % ± SEM, 30 μM; for IC50: read-out: calculated IC50 value
Outline: as §1

C33-A cells = experiment: MTT antiproliferative assay, C33-A; assay type: cell-based, human; conditions: Homo sapiens, C-33-A, 72 h; for inhibition at 10 µM: read-out: Growth inhibition, % ± SEM, C33-A, 10 μM; for inhibition at 30 µM: read-out: Growth inhibition, % ± SEM, C33-A, 30 μM; for IC50: read-out: calculated IC50 value
Outline: as §1

A2780 cells = experiment: MTT antiproliferative assay, A2780; assay type: cell-based, human; conditions: Homo sapiens, A2780, 72 h; for inhibition at 10 µM / inhibition at 30 µM: read-out: Growth inhibition, % ± SEM, 72 h; for inhibition at 10 µM: A2780, 10 μM; for inhibition at 30 µM: A2780, 30 μM; for IC50: read-out: calculated IC50 value
Outline: as §1

MCF-7 cells = experiment: MTT antiproliferative assay, MCF-7; assay type: cell-based, human; conditions: Homo sapiens, MCF7, 72 h; for inhibition at 10 µM / inhibition at 30 µM: read-out: Growth inhibition, % ± SEM, 72 h; for inhibition at 10 µM: MCF-7, 10 μM; for inhibition at 30 µM: MCF-7, 30 μM; for IC50: read-out: calculated IC50 value
Outline: as §1

MDA-MB-231 cells = experiment: MTT antiproliferative assay, MDA-MB-231; assay type: cell-based, human; conditions: Homo sapiens, MDA-MB-231, 72 h; for inhibition at 10 µM / inhibition at 30 µM: read-out: Growth inhibition, % ± SEM; for IC50: read-out: calculated IC50 value
Outline: as §1

T47D cells = experiment: MTT antiproliferative assay, T47D; assay type: cell-based, human; conditions: Homo sapiens, 72 h; for inhibition at 10 µM: read-out: Growth inhibition, % ± SEM, 10 μM; for inhibition at 30 µM: read-out: Growth inhibition, % ± SEM, 30 μM; for IC50: read-out: calculated IC50 value
Outline: as §1

[1] = test system: non-cancerous mouse embryo fibroblast (NIH/3T3) cells; experiment: MTT assay on non-cancerous fibroblasts (tumour selectivity); assay type: cell-based; conditions: Mus musculus, NIH3T3, 72 h; for inhibition at 10 µM / inhibition at 30 µM: read-out: Growth inhibition, % ± SEM; for IC50: read-out: calculated IC50 value
Experimental: (§2) The antiproliferative properties of the newly synthesized compounds (9–20) and their starting materials (4 and 5) were determined on a panel of human adherent cancer cell lines. MCF-7, MDA-MB-231 and T47D were isolated from breast cancers differing in biochemical background, while A2780 cells were isolated from ovarian cancer. HeLa and SiHa are cervical cancer cell lines positive for HPV-18 and HPV-16, respectively, while C33-A cervical cancer cells are negative for HPV. Moreover, two oropharyngeal cancer cell lines were also utilized: the HPV-negative UPCI-SCC-131 and HPV-16 positive UPCI-SCC-154. The cancer selectivity of compounds was tested on the non-cancerous mouse embryo fibroblast cell line NIH/3T3. All cell lines were purchased from European Collection of Cell Cultures (ECCAC, Salisbury, UK) exception for SiHa and C33-A (American Tissue Culture Collection, Manassas, VA, USA) and HN-SCC-131 and UPCI-SCC-154 (German Collection of Microorganisms and Cell Cultures GmbH, Braunschweig, Germany). Cells were cultivated in minimal essential medium supplemented with 10% fetal bovine serum, 1% non-essential amino acids and an antibiotic–antimycotic mixture. The medium of oropharyngeal cancer cells additionally contained 2.0 mM L-glutamine. All media and supplements were obtained from Lonza Group Ltd., Basel, Switzerland. Near-confluent cancer cells were seeded onto a 96-well microplate at a density of 5,000 cells/well, except for C33-A which were seeded at 10,000/well. After overnight standing, new medium containing the tested compounds at 10 and 30 µM final concentration was added. After incubation for 72 h at 37 °C in humidified air containing 5% CO2, the living cells were assayed by the addition of 20 μL of 5 mg/ml 3-(4,5-dimethylthiazol-2-yl)-2,5-diphenyltetrazolium bromide (MTT) solution. MTT was converted by intact mitochondrial reductase and precipitated as purple crystals during a 4-h contact period. The medium was next removed and the precipitated formazan crystals were dissolved in 100 μL of DMSO during a 60-min period of shaking at 37 ^оC.
All in vitro experiments were carried out twice with five parallels. Stock solutions of the tested substances (10 mM) were prepared in DMSO. […] Cisplatin (Ebewe Pharma GmbH, Unterach, Austria) was used as positive control.

[2] = test system: panel of human adherent cancer cell lines; experiment: MTT antiproliferative assay, whole panel of cell lines; assay type: cell-based; conditions: read-out: IC50 (span over the panel)
Experimental: as §2, with “^оC. […]” for “^оC.”

[3] = test system: certain cancer cell lines; parameters: method as in PMID 25845933; conditions: cited from earlier work

| SMILES | inhibition at 10 µM (UPCI-SCC-131 cells) [%] | inhibition at 30 µM (UPCI-SCC-131 cells) [%] | IC50 (UPCI-SCC-131 cells) [µM] | inhibition at 10 µM (UPCI-SCC-154 cells) [%] | inhibition at 30 µM (UPCI-SCC-154 cells) [%] | IC50 (UPCI-SCC-154 cells) [µM] | inhibition at 10 µM (HeLa cells) [%] | inhibition at 30 µM (HeLa cells) [%] | IC50 (HeLa cells) [µM] | inhibition at 10 µM (SiHa cells) [%] | inhibition at 30 µM (SiHa cells) [%] | IC50 (SiHa cells) [µM] | inhibition at 10 µM (C33-A cells) [%] | inhibition at 30 µM (C33-A cells) [%] | IC50 (C33-A cells) [µM] | inhibition at 10 µM (A2780 cells) [%] | inhibition at 30 µM (A2780 cells) [%] | IC50 (A2780 cells) [µM] | inhibition at 10 µM (MCF-7 cells) [%] | inhibition at 30 µM (MCF-7 cells) [%] | other results |
| --- | --- | --- | --- | --- | --- | --- | --- | --- | --- | --- | --- | --- | --- | --- | --- | --- | --- | --- | --- | --- | --- |
| COc1ccc2c(c1)CC[C@@H]1[C@@H]2CC[C@@]2(C)C(=O)[C@H](CP(=O)(c3ccc(C)cc3)c3ccc(C)cc3)C[C@@H]12 [Compound 13, [(3-methoxy-17-oxo-13α-oestra-1,3,5(10)-trien-16α-yl)methyl]di-p-tolylphosphine oxide] | 29.9 ± 1.21 | 97.02 ± 0.43 | 12.3 | < 20 | 75.9 ± 1.93 | 21.5 | < 20 | 95.69 ± 0.69 | 14.3 | < 20 | 92.9 ± 0.85 | 13.7 | < 20 | 96.31 ± 0.46 | 14.5 | < 20 | 97.77 ± 0.35 | 23.8 | < 20 | 84.9 ± 2.54 | IC50 (MCF-7 cells): 14.8 µM; inhibition at 10 µM (MDA-MB-231 cells): < 20%; inhibition at 30 µM (MDA-MB-231 cells): 95.56 ± 0.67%; IC50 (MDA-MB-231 cells): 25.8 µM; inhibition at 10 µM (T47D cells): 26.7 ± 1.95%; inhibition at 30 µM (T47D cells): 89.82 ± 0.68%; IC50 (T47D cells): 13.6 µM; inhibition at 10 µM [1]: < 20%; inhibition at 30 µM [1]: 89.76 ± 0.49%; IC50 [1]: 19.3 µM; IC50 [2]: 10 to 25 µM |
| COc1ccc2c(c1)CC[C@@H]1[C@@H]2CC[C@@]2(C)C(=O)[C@@H](CP(=O)(c3ccc(C)cc3)c3ccc(C)cc3)C[C@@H]12 [Compound 14, [(3-methoxy-17-oxo-13α-oestra-1,3,5(10)-trien-16β-yl)methyl]di-p-tolylphosphine oxide] | 48.8 ± 1.5 | 97.3 ± 1.38 | 10.9 | < 20 | 87 ± 1.16 | 11.4 | < 20 | 99.14 ± 0.37 | 12.2 | < 20 | 93 ± 1.37 | 11.8 | 26.9 ± 2.13 | 101.1 ± 0.24 | 10.9 | < 20 | 100.3 ± 0.22 | 21.5 | < 20 | 90 ± 2.88 | IC50 (MCF-7 cells): 14.4 µM; inhibition at 10 µM (MDA-MB-231 cells): < 20%; inhibition at 30 µM (MDA-MB-231 cells): 98.22 ± 0.39%; IC50 (MDA-MB-231 cells): 17.6 µM; inhibition at 10 µM (T47D cells): 22.6 ± 1.33%; inhibition at 30 µM (T47D cells): 86 ± 1.51%; IC50 (T47D cells): 13.8 µM; inhibition at 10 µM [1]: < 20%; inhibition at 30 µM [1]: 52.7 ± 2.87%; IC50 [1]: 29.6 µM; IC50 [2]: 10 to 25 µM |
| CCc1ccc(-c2cn([C@H]3C[C@H]4[C@@H]5CCc6cc(OCc7ccccc7)ccc6[C@H]5CC[C@@]4(C)[C@@H]3O)nn2)cc1 [Compound 28] | – | – | – | – | – | – | – | – | – | – | – | – | – | – | – | – | – | – | – | – | IC50 [3]: low micromolar range |
